We go through 34 compounds from ChEMBL document CHEMBL1201862, “PubChem BioAssay data set” (2004).

The structures appear in SMILES notation. Active and inactive are the calls of the source. Rule as the data show it, for most assays here: actives have a measured EC50 and inactives only a lower limit. A value given as a limit tells only on which side of the number the result lay.

For orientation: AC50 means the concentration giving half of the maximal activity seen.

One assay deals with Cytochrome P450 2C9 (Homo sapiens, UniProt P11712).
Another assay has as its target Cytochrome P450 3A4 (Homo sapiens, UniProt P08684).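 Also: CYP3A4 tested as one member of a cytochrome P450 panel screen.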
Another assay has as its target T1, Cytochrome P450 1A2 (Homo sapiens, UniProt P05177).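 Also: PubChem cytochrome P450 panel assay, CYP1A2 panel member.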
T1 sequence (P05177 whole entry): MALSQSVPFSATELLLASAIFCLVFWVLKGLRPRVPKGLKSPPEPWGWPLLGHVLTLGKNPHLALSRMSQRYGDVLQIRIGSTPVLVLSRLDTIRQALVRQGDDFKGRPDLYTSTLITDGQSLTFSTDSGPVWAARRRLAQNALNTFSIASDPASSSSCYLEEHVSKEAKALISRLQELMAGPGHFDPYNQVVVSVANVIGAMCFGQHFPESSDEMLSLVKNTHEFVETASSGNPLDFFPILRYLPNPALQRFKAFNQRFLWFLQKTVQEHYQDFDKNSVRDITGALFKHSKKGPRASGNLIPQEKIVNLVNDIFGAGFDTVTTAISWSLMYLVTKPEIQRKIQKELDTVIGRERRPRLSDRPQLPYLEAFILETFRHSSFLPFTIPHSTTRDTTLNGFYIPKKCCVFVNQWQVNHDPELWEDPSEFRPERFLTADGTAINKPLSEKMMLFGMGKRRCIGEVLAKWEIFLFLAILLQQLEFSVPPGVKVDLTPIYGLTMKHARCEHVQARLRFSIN

For assay [1], the target named is T2, Heat shock factor protein 1 (Mus musculus, UniProt P38532).
T2 sequence (P38532 whole entry): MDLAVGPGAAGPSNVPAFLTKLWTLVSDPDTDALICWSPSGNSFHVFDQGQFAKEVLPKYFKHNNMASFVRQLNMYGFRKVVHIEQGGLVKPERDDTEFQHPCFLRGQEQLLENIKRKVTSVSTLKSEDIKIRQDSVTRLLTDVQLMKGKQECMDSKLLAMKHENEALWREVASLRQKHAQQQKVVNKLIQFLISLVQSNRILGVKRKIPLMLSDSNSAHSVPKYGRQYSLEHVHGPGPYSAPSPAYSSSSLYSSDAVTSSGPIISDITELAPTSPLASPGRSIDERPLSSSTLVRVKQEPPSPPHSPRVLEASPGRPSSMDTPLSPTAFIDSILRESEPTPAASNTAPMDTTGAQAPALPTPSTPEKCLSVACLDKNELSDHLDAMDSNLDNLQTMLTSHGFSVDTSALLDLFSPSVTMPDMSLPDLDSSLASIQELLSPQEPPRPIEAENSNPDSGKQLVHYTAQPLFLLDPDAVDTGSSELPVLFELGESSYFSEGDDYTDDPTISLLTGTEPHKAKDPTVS
Kind of assay: enhancement of HSF1-driven luciferase signal – cell-based, NIH3T3, luminescence, dose retest, confirmation (AID 435004).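 Also: stress induced by proteasome inhibitor MG132 added 30 min after compound; luciferase reporter driven by HSF1 response element in NIH3T3 cells; actives raise luminescence as potentiators of the MG132 stress response.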 It is filed as functional.

For assay [2], the target named is T3, Zinc finger protein mex-5 (Caenorhabditis elegans, UniProt Q9XUB2).
T3 sequence (Q9XUB2 whole entry): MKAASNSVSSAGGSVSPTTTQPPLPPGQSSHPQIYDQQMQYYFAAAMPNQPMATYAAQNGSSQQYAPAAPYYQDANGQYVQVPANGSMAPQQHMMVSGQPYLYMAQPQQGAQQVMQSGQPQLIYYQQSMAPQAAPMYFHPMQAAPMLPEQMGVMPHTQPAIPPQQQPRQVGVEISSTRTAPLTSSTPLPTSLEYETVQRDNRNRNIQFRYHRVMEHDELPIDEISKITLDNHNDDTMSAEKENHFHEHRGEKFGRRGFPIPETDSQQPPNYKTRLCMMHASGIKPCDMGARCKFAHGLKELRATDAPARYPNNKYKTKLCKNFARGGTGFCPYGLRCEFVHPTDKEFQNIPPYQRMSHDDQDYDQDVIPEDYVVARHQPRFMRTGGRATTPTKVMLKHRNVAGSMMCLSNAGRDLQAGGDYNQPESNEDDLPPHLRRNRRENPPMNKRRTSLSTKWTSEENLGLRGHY
Kind of assay: potency of MEX-5 RNA-binding blockers – biochemical, C. elegans, fluorescence polarization, dose response (AID 1960). A general note: In fluorescence polarisation assays a small probe gives low polarisation when free and higher when bound to something large.

The target of assay [3] is T4, RNA-binding protein pos-1 (Caenorhabditis elegans, UniProt G5EF15).
T4 sequence (G5EF15 whole entry): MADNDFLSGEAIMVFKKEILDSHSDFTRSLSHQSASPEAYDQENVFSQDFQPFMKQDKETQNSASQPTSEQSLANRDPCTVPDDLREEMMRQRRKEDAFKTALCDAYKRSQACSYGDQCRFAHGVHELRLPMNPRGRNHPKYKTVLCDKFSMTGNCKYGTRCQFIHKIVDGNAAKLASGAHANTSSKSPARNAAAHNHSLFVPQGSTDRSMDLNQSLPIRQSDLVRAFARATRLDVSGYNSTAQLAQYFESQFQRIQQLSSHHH
As to the kind of experiment: disruptors of C. elegans POS-1 RNA interaction – biochemical, fluorescence polarization, dose response (AID 1964).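 Also: purified POS-1 fused to maltose binding protein made in E. coli; potency of compounds blocking POS-1 binding to fluorescent RNA.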

The test system of assay [4] is Streptococcus sp. 'group A'. As to the kind of experiment: Streptococcus pyogenes SK(-)GAS viability under kanamycin – luminescence, BacTiterGlo, confirmation, counter-screen for streptokinase expression inhibitor project, dose response (AID 1900). It counts as functional, organism-based.
In a further assay the test system is Streptococcus. As to the kind of experiment: GAS UMAA2166 growth inhibition – luminescence, BacTiterGlo, counter-screen for streptokinase expression inhibitor project, dose response (AID 1915).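 Also: potency for reduction of bacterial viability or growth.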 It counts as functional, organism-based.
Assay [5] has as its target T5, Corticotropin-releasing factor receptor 2/Corticotropin-releasing factor-binding protein (Homo sapiens, UniProt P24387+Q13324).
T5 sequence (Q13324 whole entry): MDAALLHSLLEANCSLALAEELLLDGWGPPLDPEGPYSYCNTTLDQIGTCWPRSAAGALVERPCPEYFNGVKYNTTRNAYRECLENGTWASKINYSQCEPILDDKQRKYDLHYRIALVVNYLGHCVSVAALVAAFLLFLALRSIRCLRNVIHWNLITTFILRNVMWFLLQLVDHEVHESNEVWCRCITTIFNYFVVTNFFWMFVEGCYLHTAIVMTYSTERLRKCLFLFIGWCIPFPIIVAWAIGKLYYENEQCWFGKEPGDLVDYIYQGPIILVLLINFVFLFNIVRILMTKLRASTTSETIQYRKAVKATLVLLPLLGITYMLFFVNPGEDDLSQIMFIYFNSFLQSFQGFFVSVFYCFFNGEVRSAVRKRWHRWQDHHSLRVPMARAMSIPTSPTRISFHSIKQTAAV
T5 sequence (P24387 whole entry): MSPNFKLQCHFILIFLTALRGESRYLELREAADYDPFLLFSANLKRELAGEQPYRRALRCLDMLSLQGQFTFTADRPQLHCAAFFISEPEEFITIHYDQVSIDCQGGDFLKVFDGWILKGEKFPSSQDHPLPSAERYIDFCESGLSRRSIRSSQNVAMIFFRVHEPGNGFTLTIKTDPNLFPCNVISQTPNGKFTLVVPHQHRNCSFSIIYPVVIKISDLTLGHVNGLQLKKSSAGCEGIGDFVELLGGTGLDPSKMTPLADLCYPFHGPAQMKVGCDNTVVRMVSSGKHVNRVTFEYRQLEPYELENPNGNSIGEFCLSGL
As to the kind of experiment: activators of CRF receptor 2 with binding protein – uHTS hits, confirmation (AID 602473). It is filed as functional. To be noted: read-out: EC50_Mean.

Chain of Cytochrome P450 2C9 (P11712 whole entry): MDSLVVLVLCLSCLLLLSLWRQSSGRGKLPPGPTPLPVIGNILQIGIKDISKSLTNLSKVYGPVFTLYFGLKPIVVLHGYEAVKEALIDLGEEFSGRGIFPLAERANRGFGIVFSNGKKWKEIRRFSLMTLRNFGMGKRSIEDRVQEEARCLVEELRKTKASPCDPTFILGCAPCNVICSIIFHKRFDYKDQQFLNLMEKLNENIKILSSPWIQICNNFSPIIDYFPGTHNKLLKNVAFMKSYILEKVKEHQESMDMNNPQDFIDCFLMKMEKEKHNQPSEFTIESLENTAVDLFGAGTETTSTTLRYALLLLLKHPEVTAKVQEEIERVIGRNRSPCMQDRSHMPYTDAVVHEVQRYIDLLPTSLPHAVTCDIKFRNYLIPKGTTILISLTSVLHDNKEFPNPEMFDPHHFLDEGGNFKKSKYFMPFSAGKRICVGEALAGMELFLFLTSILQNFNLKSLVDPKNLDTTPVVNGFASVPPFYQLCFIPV
Chain of Cytochrome P450 3A4 (P08684 whole entry): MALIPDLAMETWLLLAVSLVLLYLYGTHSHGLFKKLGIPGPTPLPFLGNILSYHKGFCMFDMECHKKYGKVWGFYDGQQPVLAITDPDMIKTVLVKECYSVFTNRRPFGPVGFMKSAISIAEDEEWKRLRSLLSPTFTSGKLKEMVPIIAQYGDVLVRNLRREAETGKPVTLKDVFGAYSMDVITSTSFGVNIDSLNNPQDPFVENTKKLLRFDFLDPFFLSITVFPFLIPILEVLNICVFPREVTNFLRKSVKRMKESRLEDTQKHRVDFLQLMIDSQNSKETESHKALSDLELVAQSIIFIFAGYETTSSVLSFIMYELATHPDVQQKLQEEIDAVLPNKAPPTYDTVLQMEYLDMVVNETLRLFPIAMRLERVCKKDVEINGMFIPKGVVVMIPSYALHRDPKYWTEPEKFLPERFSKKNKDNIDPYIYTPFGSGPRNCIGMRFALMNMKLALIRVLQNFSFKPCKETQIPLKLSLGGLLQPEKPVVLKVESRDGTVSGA

For `CC(C)(C)c1ccc(-c2nnc(SCc3ccc(Cl)cc3)n2-c2cccc(C(F)(F)F)c2)cc1`, the AC50 on Cytochrome P450 2C9, at Cytochrome P450 3A4 and on Cytochrome P450 1A2 was 3.16 µM (inconclusive) throughout.

As to `CCC[C@@H]1C[C@@]1(CCC)C(NC(=O)c1ccccc1)c1cccc(Cl)c1` (some centres undefined), the AC50 was 20 µM (inconclusive) at Cytochrome P450 2C9 and 3.98 µM (inconclusive) at Cytochrome P450 3A4.

Consider `CCCCn1cnc2c(oc3nc4c(cc32)CCCC4)c1=O`, for which the EC50 in assay [1] is > 260 µM (inactive).

As to `COC(=O)N1CCC2(CCCN(C(=O)Nc3cccc(F)c3)C2)CC1`, at Cytochrome P450 3A4, the AC50 was 25.1 µM (inconclusive).

In the case of `O=C(c1ccco1)N1CCc2ccccc21`, the EC50 in [2] was 169 µM (active); in assay [3], > 300 µM (not active). Take `O=C(O)CSc1nnnn1-c1ccc2c(c1)OCCO2`: the EC50 in assay [1] is > 260 µM (inactive). As for `CCOC(=O)c1c(/N=C/C2C(=O)NC(=S)NC2=O)sc(C)c1C`, the EC50 in [2] was > 300 µM (inconclusive); in [3], > 300 µM (not active).

For `CCOC(=O)Cn1nnc(-c2cccc(OC)c2)n1`, in [1], the EC50 is > 260 µM (inactive). In the case of `COc1ccc(C(OCCN2CCC[C@@H](C(=O)O)C2)(c2ccc(OC)cc2)c2ccc(OC)cc2)cc1`, the AC50 at Cytochrome P450 3A4 and on Cytochrome P450 1A2 was 31.6 µM (inconclusive) each time. Regarding `CCn1c(SCC(=O)c2ccc(Cl)cc2)nnc1-c1ccoc1C`, the EC50 in [1] is > 260 µM (inactive). On to `CCOC(=O)C1=C(C)NC(=S)NC1c1cccc(O)c1` (centres undefined) [MONASTROL], for which the values for the AC50 on Cytochrome P450 2C9 and at Cytochrome P450 1A2 were 20 µM (inconclusive) and 39.8 µM (inconclusive), respectively. Consider `CCOC(=O)N1CCN(CC(=O)c2ccc(O)cc2O)CC1`, for which the EC50 was 40.7 µM (active) in assay [2] and 157 µM (active) in assay [3]. For `COc1ccc(CNC(=O)C(c2ccc(C)o2)N(C(=O)c2csnn2)c2ccc(C(C)C)cc2)cc1` (centres undefined), the EC50 in assay [1] is 73.7 µM (active). On to `C[C@@]1(C(NC(=O)c2cccs2)c2ccc(-c3ccccc3)cc2)C[C@H]1C1CCCCC1` (some centres undefined), for which the AC50 on Cytochrome P450 3A4 is 20 µM (inconclusive). For the compound `COc1cc(OC)c2c(c1Cl)O[C@@]1(C2=O)[C@H](C)CC(=O)C[C@@H]1OC`, the AC50 is 12.6 µM (inconclusive) at Cytochrome P450 3A4 and 15.8 µM (inconclusive) on Cytochrome P450 1A2. In the case of `O=C(N/N=C/c1c(O)ccc2ccccc12)Nc1ccccc1`, the figures for the EC50 (in assay [4]; in the assay on Streptococcus; in assay [2]) were 8.29 µM (active), 8.39 µM (active) and > 300 µM (not active), respectively. As to `Cc1cccn2c(=O)c3cc(S(=O)(=O)c4ccccc4)c(=N)n(CC4CCCO4)c3nc12` (centres undefined), the EC50 in assay [2] was > 300 µM (inconclusive); in [3], 5.7 µM (inconclusive).

`COc1ccc(/C=N/n2cncn2)cc1COc1ccc(NC(C)=O)cc1`: in [1], the EC50 is > 260 µM (inactive). On to `O=S(=O)(c1ccccc1)N1CCCC1c1nc2ccccc2s1` (centres undefined), for which the figures for the AC50 at Cytochrome P450 3A4 and on Cytochrome P450 1A2 were 20 µM (inconclusive) and 25.1 µM (inconclusive), respectively. As for `O=C(c1cccc(F)c1)N1CCC2(CCCN(Cc3ccncc3)C2)CC1`, the figures for the AC50 at Cytochrome P450 3A4 and at Cytochrome P450 1A2 were 3.98 µM (inconclusive) and 15.8 µM (inconclusive), respectively. For `CN1CCN(c2ncc3nc(-c4cn(C)c5ccccc45)c(=O)n(C)c3n2)CC1`, the AC50 on Cytochrome P450 2C9 is 12.6 µM (inconclusive); at Cytochrome P450 3A4 it was 25.1 µM (inconclusive); at Cytochrome P450 1A2, 31.6 µM (inconclusive). With `COc1ccccc1N1CCN(C2CCCCC2NS(=O)(=O)c2ccc(Cl)cc2)CC1` (centres undefined), the EC50 in [5] was 4.3 µM (active). For the compound `O=C(NNC(=O)c1ccccc1[N+](=O)[O-])/C(O)=C/C(=O)c1ccccc1`, the figures for the EC50 in assay [2] and in [3] were 1.11 µM (active) and 70 µM (active), respectively. For the compound `Cc1cccc(/C=C(\C(=O)C(=O)O)c2ccc3ccccc3n2)c1`, the EC50 in [2] is 22.9 µM (active); in assay [3], 27.2 µM (active). `O=C(NCCn1cccn1)C1CCC(=O)N(CCc2cccc(F)c2)C1` (centres undefined): the EC50 in assay [1] is > 260 µM (inactive). Consider `CN(C)c1ccc(/C=N/NC2=NS(=O)(=O)c3ccccc32)cc1`, for which the EC50 in assay [2] was > 300 µM (inconclusive); in assay [3], 39.3 µM (active). For `O=C(NCc1cccc(F)c1)c1cccc2c1C(=O)c1ccc(N3CCCC3)cc1S2(=O)=O`, the EC50 in assay [5] is 6.84 µM (active). On to `CC(C)CNC(=O)C1Nc2ccc(OC(F)(F)F)cc2C2C=CCC12` (centres undefined), for which the EC50 in [2] and in assay [3] was > 300 µM (not active) throughout. In the case of `C/C(CCC(=O)OC[C@@H]1O[C@H](C#Cc2ccccc2)C=C[C@@H]1Oc1ccc(C)cc1)=N/OC[C@@H](O)COCc1ccco1`, at Cytochrome P450 2C9, the AC50 was 1.58 µM (inconclusive). For `O=C1NC(=O)N(Cc2ccccc2)C(=O)/C1=C/NNC(=O)c1ccncc1`, the EC50 was 93.9 µM (active) in assay [2] and 43.9 µM (active) in [3].

With `Cc1cc(C)n(CCCNCC(O)c2ccccc2)n1` (centres undefined), the AC50 at Cytochrome P450 3A4 was 35.5 µM (inconclusive); on Cytochrome P450 1A2 it was 39.8 µM (inconclusive).

As to `O=C1NC(=O)C(=Cc2ccc(-c3ccc(S(=O)(=O)N4CCOCC4)cc3)o2)C(=O)N1`, the EC50 in assay [2] is 34.7 µM (active); in assay [3] it was 40.5 µM (active). For `CCc1ccc2c(-c3cccc(Cl)c3)nc(=O)n(CC)c2n1`, the AC50 on Cytochrome P450 2C9 is 39.8 µM (inconclusive); at Cytochrome P450 3A4 it was 31.6 µM (inconclusive).

As to `O=C(O)c1ccccc1N(c1ccccc1)c1ccccc1`, the EC50 in [2] and in assay [3] was > 300 µM (not active) throughout.
